Experiment: Storage stability: degradation of IMS in OD formulations, determined by HPLC
Assay type: physicochemical
Settings: for Degradation of IMS after 1 week at 54° C. / Degradation of IMS after 4 weeks at 40° C. / Degradation of IMS after 8 weeks at 40° C. / Degradation of IMS after 12 weeks at 35° C. / Degradation of IMS after 2 weeks at 54° C. / Degradation of IMS after 8 weeks at 40° C0: Emulsogen EL 400 10%
Text: The sodium salt of iodosulfuron-methyl (iodosulfuron-methyl-sodium, IMS) is finely dispersed by means of a rotor-stator mixer together with a customary emulsifier such as Emulsogen EL 400® (castor oil polyglycol ether from Clariant AG) in the solvents customary for OD formulations (oil dispersion formulations), such as rapeseed oil methyl ester or Solvesso 200 ND® (aromatics mixture from Exxon AG). Further formulation auxiliaries such as the thickener Bentone 38® (sheet silicate from Elementis AG) or the polymers Ligalub PEG 400 MO® (polyethylene glycol monooleate from Peter Greven GmbH), Ligalub 12 GE® (glyceryl dioleate from Peter Greven GmbH) or Ligalub 71 KE® (complex ester from Peter Greven GmbH) can, inter alia, also be added to the system. Furthermore, lithium hydroxystearate (lithium soap of a 12-hydroxystearic acid) was also additionally added for comparison purposes to each mixture.
Tables 1 to 9 show the compositions of the tested OD formulations (% data in % by weight).
The degradation of the IMS is determined here by means of HPLC.
The degradation is expressed here in tables 1 to 9 in—xx %. This means that after the relevant period xx % of the originally present IMS was already degraded.

[1] = Table 1 OD formulation: IMS 0.5%, Lithium hydroxystearate 0%, Bentone 38 1.2%, Rapeseed oil methyl ester 88.3%
[2] = Table 1 OD formulation: IMS 0.5%, Lithium hydroxystearate 1%, Bentone 38 1.2%, Rapeseed oil methyl ester 87.3%
[3] = Table 2 OD formulation: IMS 0.5%, Lithium hydroxystearate 0%, Solvesso 200 ND 89.5%
[4] = Table 2 OD formulation: IMS 0.5%, Lithium hydroxystearate 0.5%, Solvesso 200 ND 89%
[5] = Table 2 OD formulation: IMS 0.5%, Lithium hydroxystearate 1%, Solvesso 200 ND 88.5%
[6] = Table 2 OD formulation: IMS 0.5%, Lithium hydroxystearate 5%, Solvesso 200 ND 84.5%
[7] = Table 3 OD formulation: IMS 2%, Lithium hydroxystearate 0%, Solvesso 200 ND 88%
[8] = Table 3 OD formulation: IMS 2%, Lithium hydroxystearate 1%, Solvesso 200 ND 87%
[9] = Table 4 OD formulation: IMS 0.5%, Lithium hydroxystearate 0%, Ligalub PEG 400 MO 15%, Solvesso 200 ND 74.5%
[10] = Table 4 OD formulation: IMS 0.5%, Lithium hydroxystearate 1%, Ligalub PEG 400 MO 15%, Solvesso 200 ND 73.5%
[11] = Table 5 OD formulation: IMS 0.5%, Lithium hydroxystearate 0%, Ligalub PEG 400 MO 30%, Bentone 38 1.2%, Rapeseed oil methyl ester 58.3%
[12] = Table 5 OD formulation: IMS 0.5%, Lithium hydroxystearate 1%, Ligalub PEG 400 MO 30%, Bentone 38 1.2%, Rapeseed oil methyl ester 57.3%
[13] = Table 6 OD formulation: IMS 2%, Lithium hydroxystearate 0%, Ligalub PEG 400 MO 15%, Solvesso 200 ND 73%
[14] = Table 6 OD formulation: IMS 2%, Lithium hydroxystearate 1%, Ligalub PEG 400 MO 15%, Solvesso 200 ND 72%
[15] = Table 7 OD formulation: IMS 0.5%, Lithium hydroxystearate 0%, Ligalub 12 GE 30%, Bentone 38 1.2%, Rapeseed oil methyl ester 58.3%
[16] = Table 7 OD formulation: IMS 0.5%, Lithium hydroxystearate 1%, Ligalub 12 GE 30%, Bentone 38 1.2%, Rapeseed oil methyl ester 57.3%
[17] = Table 8 OD formulation: IMS 0.5%, Lithium hydroxystearate 0%, Ligalub 71 KE 15%, Solvesso 200 ND 74.5%
[18] = Table 8 OD formulation: IMS 0.5%, Lithium hydroxystearate 1%, Ligalub 71 KE 15%, Solvesso 200 ND 73.5%
[19] = Table 9 OD formulation: IMS 0.5%, Lithium hydroxystearate 0%, Ligalub 71 KE 30%, Bentone 38 1.2%, Rapeseed oil methyl ester 58.3%
[20] = Table 9 OD formulation: IMS 0.5%, Lithium hydroxystearate 1%, Ligalub 71 KE 30%, Bentone 38 1.2%, Rapeseed oil methyl ester 57.3%

SMILES: CCCCCCC(O)CCCCCCCCCCC(=O)[O-].[Li+] (stereo not drawn) [lithium hydroxystearate]
- stabilizing effect on the sodium salt of iodosulfuron (hydroxystearate as thickener in oil-based liquid formulations of iodosulfuron-methyl sodium salt): particularly significantly stabilizing effect

SMILES: COC(=O)c1ccc(I)cc1S(=O)(=O)[N-]C(=O)Nc1nc(C)nc(OC)n1.[Na+] [IMS, iodosulfuron-methyl sodium salt]
- Degradation of IMS after 1 week at 54° C. [1]: −78.3%
- Degradation of IMS after 4 weeks at 40° C. [1]: −46.4%
- Degradation of IMS after 8 weeks at 40° C. [1]: −69.7%
- Degradation of IMS after 12 weeks at 35° C. [1]: −57.8%
- Degradation of IMS after 1 week at 54° C. [2]: −23.9%
- Degradation of IMS after 4 weeks at 40° C. [2]: −5%
- Degradation of IMS after 8 weeks at 40° C. [2]: −8.7%
- Degradation of IMS after 12 weeks at 35° C. [2]: −6.3%
- Degradation of IMS after 2 weeks at 54° C. [3]: −87.9%
- Degradation of IMS after 4 weeks at 40° C. [3]: −29.9%
- Degradation of IMS after 2 weeks at 54° C. [4]: −32.2%
- Degradation of IMS after 4 weeks at 40° C. [4]: −7.4%
- Degradation of IMS after 2 weeks at 54° C. [5]: −28%
- Degradation of IMS after 4 weeks at 40° C. [5]: −3.4%
- Degradation of IMS after 2 weeks at 54° C. [6]: −14.7%
- Degradation of IMS after 4 weeks at 40° C. [6]: −3.6%
- Degradation of IMS after 2 weeks at 54° C. [7]: −34.6%
- Degradation of IMS after 4 weeks at 40° C. [7]: −5.2%
- Degradation of IMS after 2 weeks at 54° C. [8]: −13.1%
- Degradation of IMS after 4 weeks at 40° C. [8]: −0.2%
- Degradation of IMS after 2 weeks at 54° C. [9]: −93.2%
- Degradation of IMS after 4 weeks at 40° C. [9]: −34.9%
- Degradation of IMS after 2 weeks at 54° C. [10]: −37.8%
- Degradation of IMS after 4 weeks at 40° C. [10]: −7.2%
- Degradation of IMS after 2 weeks at 54° C. [11]: −87.4%
- Degradation of IMS after 4 weeks at 40° C. [11]: −51.6%
- Degradation of IMS after 8 weeks at 40° C0 [11]: −77.2%
- Degradation of IMS after 12 weeks at 35° C. [11]: −66.8%
- Degradation of IMS after 2 weeks at 54° C. [12]: −45.8%
- Degradation of IMS after 4 weeks at 40° C. [12]: −14.8%
- Degradation of IMS after 8 weeks at 40° C0 [12]: −21%
- Degradation of IMS after 12 weeks at 35° C. [12]: −13.6%
- Degradation of IMS after 2 weeks at 54° C. [13]: −81.8%
- Degradation of IMS after 4 weeks at 40° C. [13]: −32.9%
- Degradation of IMS after 2 weeks at 54° C. [14]: −32.7%
- Degradation of IMS after 4 weeks at 40° C. [14]: −3.2%
- Degradation of IMS after 1 week at 54° C. [15]: −42.4%
- Degradation of IMS after 4 weeks at 40° C. [15]: −76.6%
- Degradation of IMS after 8 weeks at 40° C. [15]: −65.9%
- Degradation of IMS after 12 weeks at 35° C. [15]: −55.7%
- Degradation of IMS after 1 week at 54° C. [16]: −11.8%
- Degradation of IMS after 4 weeks at 40° C. [16]: −3.6%
- Degradation of IMS after 8 weeks at 40° C. [16]: −4.7%
- Degradation of IMS after 12 weeks at 35° C. [16]: −5.3%
- Degradation of IMS after 2 weeks at 54° C. [17]: −66.6%
- Degradation of IMS after 4 weeks at 40° C. [17]: −65%
- Degradation of IMS after 2 weeks at 54° C. [18]: −9.86%
- Degradation of IMS after 4 weeks at 40° C. [18]: −5.6%
- Degradation of IMS after 1 week at 54° C. [19]: −75.8%
- Degradation of IMS after 4 weeks at 40° C. [19]: −39.6%
- Degradation of IMS after 8 weeks at 40° C. [19]: −63.6%
- Degradation of IMS after 12 weeks at 35° C. [19]: −54.6%
- Degradation of IMS after 1 week at 54° C. [20]: −11.4%
- Degradation of IMS after 4 weeks at 40° C. [20]: −2.3%
- Degradation of IMS after 8 weeks at 40° C. [20]: −3%
- Degradation of IMS after 12 weeks at 35° C. [20]: −3%
